Results as given in patent US9630949B2, “Oxoazetidine derivatives, process for the preparation thereof and use thereof in human medicine and in cosmetics” (GALDERMA RESEARCH & DEVELOPMENT, priority 2008, dated 2017).

Key:
hMC1R = hMC1R (Homo sapiens (Human), UniProt Q01726); test: Transactivation test: melanocortin receptors (pCRE-Luc luciferase reporter), hMC1R; format: cell-based; conditions: HEK293 transfected with pCRE-Luc and hMC1R; products tested alone (agonist), 6 h incubation; % activity vs NDP-MSH 10 nM; IA: inactive
Chain of hMC1R (Q01726 whole entry): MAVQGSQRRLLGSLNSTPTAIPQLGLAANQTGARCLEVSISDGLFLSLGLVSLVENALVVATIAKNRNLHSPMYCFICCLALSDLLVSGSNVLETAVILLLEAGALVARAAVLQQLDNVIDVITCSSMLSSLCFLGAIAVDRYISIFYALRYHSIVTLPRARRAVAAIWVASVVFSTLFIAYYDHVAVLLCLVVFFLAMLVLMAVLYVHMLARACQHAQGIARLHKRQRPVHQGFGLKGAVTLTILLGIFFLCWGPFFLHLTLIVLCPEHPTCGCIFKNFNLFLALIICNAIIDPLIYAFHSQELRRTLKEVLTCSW
Protocol: (§1) Transactivation Test: Melanocortin Receptors
(§2) HEK293 lines are transfected with the pCRE-Luc and hMC1R, hMC3R, hMC4R or hMC5R vectors. The cells are cultured at 37° C., 5% CO2, in DMEM medium supplemented with 10% of foetal calf serum.
(§3) In the presence of an activator (agonist), the melanocortin receptor will activate the cAMP pathway which, via the CRE-Luc vector, will result in the synthesis of luciferase. After the addition of a lysis buffer containing a luminescent substrate for luciferase, it will be possible to measure the luminescence proportional to the degree of activation or of inhibition of the receptor.
(§4) The products are solubilized at 10 mM in DMSO. They are tested in the form of dose-response at a final DMSO concentration of 0.1%. The range comprising 10 points and one zero begins at 10 μM with 4-fold dilutions. For testing agonists, the products are tested alone. For determining the behaviour of antagonists, the products of interest are tested in the presence of 1 nM NDP-MSH (reference agonist). The cells are seeded at a rate of 5000 cells per well (384 well plate) in serum-free DMEM medium, and incubated overnight at 37° C., 5% CO2.
(§5) The products and the reference ligand (NDP-MSH) are added the following day, and the plates are again incubated for 6 h at 37° C., 5% CO2. After the addition of lysis buffer containing luciferin, the plates are read on a Top-Count instrument. The results are standardized as % activity using the 100% (cells+NDP-MSH at 10 nM) and 0% (cells alone) controls. An EC50 is calculated for each product using the XLFit software. The results are given in nM.

hMC4R = hMC4R (Homo sapiens (Human), UniProt P32245); test: Transactivation test: melanocortin receptors (pCRE-Luc luciferase reporter), hMC4R; format: cell-based; conditions: HEK293 transfected with pCRE-Luc and hMC4R; products tested alone (agonist), 6 h incubation; % activity vs NDP-MSH 10 nM; IA: inactive
Chain of hMC4R (P32245 whole entry): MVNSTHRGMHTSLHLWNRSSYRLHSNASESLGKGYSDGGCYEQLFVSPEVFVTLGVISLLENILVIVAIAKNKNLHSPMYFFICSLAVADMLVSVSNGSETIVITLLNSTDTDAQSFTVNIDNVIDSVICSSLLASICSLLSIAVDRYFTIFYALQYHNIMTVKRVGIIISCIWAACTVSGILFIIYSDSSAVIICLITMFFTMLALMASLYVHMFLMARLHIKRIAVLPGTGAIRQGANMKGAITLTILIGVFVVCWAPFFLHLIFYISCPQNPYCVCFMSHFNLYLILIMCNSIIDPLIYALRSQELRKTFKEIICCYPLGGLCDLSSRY
Protocol: as §1, §2, §3, §4, §5

| SMILES | EC50 (hMC1R) [µM] | EC50 (hMC4R) [µM] |
| --- | --- | --- |
| COc1ccc(C[C@@H](NC(=O)CCc2nc[nH]c2C)C(=O)N2CC(OCC3CCC3)(c3ccccc3C)C2)cc1 [Compound 79, N-[(R)-2-(3-Cyclobutylmethoxy-3-o-tolylazetidin-1-yl)-1-(4-methoxybenzyl)-2-oxoethyl]-3-(5-methyl-1H-imidazol-4-yl)propionamide] | 0.015 | 1 |
| COc1ccc(C[C@H](NC(=O)[C@H](Cc2c[nH]cn2)NC(=O)c2ccccc2)C(=O)N2CC(O)(c3ccccc3C)C2)cc1 [Compound 4, N-[(S)-1-[(S)-2-(3-hydroxy-3-o-tolylazetidin-1-yl)-1-(4-methoxybenzyl)-2-oxoethylcarbamoyl]-2-(1H-imidazol-4-yl)ethyl]benzamide] | 0.25 | 4 |
| CCCCCC1(c2ccccc2)CN(C(=O)[C@@H](Cc2ccccc2)NC(=O)CCc2c[nH]cn2)C1 [Compound 47, N-[(R)-1-benzyl-2-oxo-2-(3-pentyl-3-phenylazetidin-1-yl)ethyl]-3-(1H-imidazol-4-yl)propionamide] | 0.5 | 4 |
| CCCCOC1(c2ccc(F)cc2)CN(C(=O)[C@@H](Cc2cccc(F)c2)NC(=O)CCc2c[nH]cn2)C1 [Compound 31, N-[(R)-2-[3-butoxy-3-(4-fluorophenyl)azetidin-1-yl]-1-(3-fluorobenzyl)-2-oxoethyl]-3-(1H-imidazol-4-yl)propionamide] | 0.5 | 4 |
| CCCCCC1(c2ccccc2)CN(C(=O)[C@@H](Cc2ccccc2F)NC(=O)CCc2c[nH]cn2)C1 [Compound 57, N-[(R)-1-(2-fluorobenzyl)-2-oxo-2-(3-pentyl-3-phenylazetidin-1-yl)ethyl]-3-(1H-imidazol-4-yl)propionamide] | 1 | 4 |
| CCCCCC1(c2ccccc2C)CN(C(=O)[C@@H](Cc2ccc(OC)cc2)NC(=O)CCc2c[nH]cn2)C1 [Compound 37, N-[(R)-1-(4-methoxybenzyl)-2-oxo-2-(3-pentyl-3-o-tolylazetidin-1-yl)ethyl]-3-(1H-imidazol-4-yl)propionamide] | 0.25 | 2 |
| CCCCOC1(c2ccccc2)CN(C(=O)[C@@H](Cc2ccccc2)NC(=O)CCc2c[nH]cn2)C1 [Compound 35, N-[(R)-1-benzyl-2-(3-butoxy-3-phenylazetidin-1-yl)-2-oxoethyl]-3-(1H-imidazol-4-yl)propionamide] | 0.5 | 2 |
| CCCCOC1(c2ccccc2C)CN(C(=O)[C@@H](Cc2ccc(OC)cc2)NC(=O)CC(O)c2c[nH]cn2)C1 (stereo partly drawn) [Compound 74, N-[(R)-2-(3-Butoxy-3-o-tolylazetidin-1-yl)-1-(4-methoxybenzyl)-2-oxoethyl]-3-hydroxy-3-(1H-imidazol-4-yl)propionamide] | 0.25 | 8 |
| CCCCCC1(c2ccc(F)cc2F)CN(C(=O)[C@@H](Cc2ccc(OC)cc2)NC(=O)CCc2c[nH]cn2)C1 [Compound 49, N-[(R)-2-[3-(2,4-difluorophenyl)-3-pentylazetidin-1-yl]-1-(4-methoxybenzyl)-2-oxoethyl]-3-(1H-imidazol-4-yl)propionamide] | 0.015 | 2 |
| CCCCCC1(c2ccccc2)CN(C(=O)[C@@H](Cc2ccc(Cl)cc2)NC(=O)CCc2c[nH]cn2)C1 [Compound 45, N-[(R)-1-(4-chlorobenzyl)-2-oxo-2-(3-pentyl-3-phenylazetidin-1-yl)ethyl]-3-(1H-imidazol-4-yl)propionamide] | 2 | 2 |
| CCCCOC1(c2ccccc2F)CN(C(=O)[C@@H](Cc2ccc(OC)cc2)NC(=O)CCc2c[nH]cn2)C1 [Compound 68, N-[(R)-2-[3-Butoxy-3-(2-fluorophenyl)azetidin-1-yl]-1-(4-methoxybenzyl)-2-oxoethyl]-3-(1H-imidazol-4-yl)propionamide] | 0.06 | 2 |
| COc1ccc(C[C@H](NC(=O)[C@H](Cc2c[nH]cn2)NC(=O)c2ccccc2)C(=O)N2CC(O)(C3CCCCC3)C2)cc1 [Compound 7, N-[(S)-1-[(S)-2-(3-cyclohexyl-3-hydroxyazetidin-1-yl)-1-(4-methoxybenzyl)-2-oxoethylcarbamoyl]-2-(1H-imidazol-4-yl)ethyl]benzamide] | 0.5 | 4 |
| CCCOC1(c2ccccc2C)CN(C(=O)[C@@H](Cc2ccc(OC)cc2)NC(=O)CCc2c[nH]cn2)C1 [Compound 22, N-[(R)-1-(4-methoxybenzyl)-2-oxo-2-(3-propoxy-3-o-tolylazetidin-1-yl)ethyl]-3-(1H-imidazol-4-yl)propionamide] | 0.12 | 10 |
| CCCCCC1(c2ccccc2)CN(C(=O)[C@@H](Cc2ccc(Cl)cc2Cl)NC(=O)CCc2c[nH]cn2)C1 [Compound 58, N-[(R)-1-(2,4-dichlorobenzyl)-2-oxo-2-(3-pentyl-3-phenylazetidin-1-yl)ethyl]-3-(1H-imidazol-4-yl)propionamide] | 2 | 0.5 |
| CCCCOC1(c2ccc(F)cc2)CN(C(=O)[C@@H](Cc2ccc(OC)cc2)NC(=O)CCc2c[nH]cn2)C1 [Compound 23, N-[(R)-2-[3-butoxy-3-(4-fluorophenyl)azetidin-1-yl]-1-(4-methoxybenzyl)-2-oxoethyl]-3-(1H-imidazol-4-yl)propionamide] | 0.06 | 1 |
| CCCCOC1(c2ccccc2)CN(C(=O)[C@H](Cc2ccc(OC)cc2)NC(=O)[C@H](Cc2c[nH]cn2)NC(=O)c2ccccc2)C1 [Compound 3, N-[(S)-1-[(S)-2-(3-butoxy-3-phenylazetidin-1-yl)-1-(4-methoxybenzyl)-2-oxoethylcarbamoyl]-2-(1H-imidazol-4-yl)ethyl]benzamide] | 0.06 | 4 |
| CCCCOC1(c2ccccc2C)CN(C(=O)[C@@H](Cc2ccc(OC)cc2)NC(=O)CCc2cn(C)cn2)C1 [Compound 69, N-[(R)-2-(3-Butoxy-3-o-tolylazetidin-1-yl)-1-(4-methoxybenzyl)-2-oxoethyl]-3-(1-methyl-1H-imidazol-4-yl)propionamide] | 1 | 8 |
| COc1ccc(C[C@H](NC(=O)CCc2c[nH]cn2)C(=O)N2CC(O)(c3ccccc3C)C2)cc1 [Compound 11, N-[(S)-2-(3-hydroxy-3-o-tolylazetidin-1-yl)-1-(4-methoxybenzyl)-2-oxoethyl]-3-(1H-imidazol-4-yl)propionamide] | 4 | 8 |
| CCCCOC1(c2ccccc2C)CN(C(=O)[C@@H](Cc2ccc(OC)cc2)NC(=O)CCc2c[nH]nn2)C1 [Compound 39, N-[(R)-2-(3-butoxy-3-o-tolylazetidin-1-yl)-1-(4-methoxybenzyl)-2-oxoethyl]-3-(1H-[1,2,3]triazol-4-yl)propionamide] | 8 | 2 |
| CCCCC1(c2ccccc2)CN(C(=O)[C@@H](Cc2ccc(OC)cc2)NC(=O)CCc2c[nH]cn2)C1 [Compound 27, N-[(R)-2-(3-butyl-3-phenylazetidin-1-yl)-1-(4-methoxybenzyl)-2-oxoethyl]-3-(1H-imidazol-4-yl)propionamide] | 0.5 | 8 |
| CCCCCC1(C2CCCCC2)CN(C(=O)[C@@H](Cc2ccc(OC)cc2)NC(=O)CCc2c[nH]cn2)C1 [Compound 66, N-[(R)-2-(3-cyclohexyl-3-pentylazetidin-1-yl)-1-(4-methoxybenzyl)-2-oxoethyl]-3-(1H-imidazol-4-yl)propionamide] | 0.25 | 0.25 |
| COc1ccc(C[C@@H](NC(=O)CCc2c[nH]cn2)C(=O)N2CC(OCC3CC3)(c3ccccc3C)C2)cc1 [Compound 20, N-[(R)-2-(3-cyclopropylmethoxy-3-o-tolylazetidin-1-yl)-1-(4-methoxybenzyl)-2-oxoethyl]-3-(1H-imidazol-4-yl)propionamide] | 0.12 | 4 |
| CCCCOC1(c2ccccc2C)CN(C(=O)C(Cc2ccc(OC)cc2)NC(=O)CC(CC)c2c[nH]cn2)C1 (centres unmarked) [Compound 63, N-[2-(3-butoxy-3-o-tolylazetidin-1-yl)-1-(4-methoxybenzyl)-2-oxoethyl]-3-(1H-imidazol-4-yl)pentyramide] | 0.5 | 0.5 |
| CC#CCC1(c2ccccc2C)CN(C(=O)[C@@H](Cc2ccc(OC)cc2)NC(=O)CCc2c[nH]cn2)C1 [Compound 75, N-[(R)-2-(3-But-2-ynyl-3-o-tolylazetidin-1-yl)-1-(4-methoxybenzyl)-2-oxoethyl]-3-(1H-imidazol-4-yl)propionamide] | 0.06 | 4 |
| CCCCOC1(c2ccc(F)cc2)CN(C(=O)[C@H](Cc2ccc(OC)cc2)NC(=O)[C@H](Cc2c[nH]cn2)NC(=O)c2ccccc2)C1 [Compound 8, N-[(S)-1-[(S)-2-[3-butoxy-3-(4-fluorophenyl)azetidin-1-yl]-1-(4-methoxybenzyl)-2-oxoethylcarbamoyl]-2-(1H-imidazol-4-yl)ethyl]benzamide] | 0.12 | 4 |
